ChEMBL document CHEMBL1177693, “Antimalarials from nature” (Bioorg Med Chem, 2009)
Converted amounts (≈) assume the structure as drawn. Blank lines part the entries; values can stand above or below the molecule they belong to.

What was measured:
[1] = target: T1, Enoyl-acyl-carrier protein reductase (Plasmodium falciparum) (UniProt Q965D5); test: (§1) Inhibition of Plasmodium falciparum Fabl
T1 sequence (whole entry): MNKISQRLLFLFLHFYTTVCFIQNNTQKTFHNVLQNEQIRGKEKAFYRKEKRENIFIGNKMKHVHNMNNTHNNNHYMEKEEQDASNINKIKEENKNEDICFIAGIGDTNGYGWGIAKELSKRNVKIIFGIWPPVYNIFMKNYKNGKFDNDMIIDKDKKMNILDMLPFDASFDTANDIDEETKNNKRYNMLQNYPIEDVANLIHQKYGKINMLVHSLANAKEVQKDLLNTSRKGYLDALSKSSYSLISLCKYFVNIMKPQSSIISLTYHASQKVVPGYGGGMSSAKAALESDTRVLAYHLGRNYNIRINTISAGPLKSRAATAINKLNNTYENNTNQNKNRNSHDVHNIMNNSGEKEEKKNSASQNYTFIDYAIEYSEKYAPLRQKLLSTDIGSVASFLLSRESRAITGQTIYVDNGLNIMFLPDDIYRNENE

[2] = system: Plasmodium falciparum; test: Inhibition of Plasmodium falciparum FabG; conditions: concentration not given here
[3] = system: Plasmodium falciparum; test: Antimalarial activity against chloroquine-resistant Plasmodium falciparum Dd2; assay type: functional, organism-based
[4] = system: Plasmodium falciparum; test: Antimalarial activity against chloroquine-sensitive Plasmodium falciparum PoW; assay type: functional, organism-based
[5] = system: Plasmodium falciparum; test: Antimalarial activity against Plasmodium falciparum FCA; assay type: functional, organism-based
[6] = system: Plasmodium falciparum; test: Antimalarial activity against chloroquine-resistant Plasmodium falciparum; assay type: functional, organism-based
[7] = system: Plasmodium falciparum; test: Antimalarial activity against chloroquine-resistant Plasmodium falciparum FCB1; assay type: functional, organism-based; conditions: FcB1/Columbia
[8] = system: Plasmodium falciparum; test: Antimalarial activity against Plasmodium falciparum NF54; assay type: functional, organism-based
[9] = system: Plasmodium falciparum; test: Antimalarial activity against Plasmodium falciparum K1; assay type: functional, organism-based
[10] = system: Plasmodium berghei; test: Antimalarial activity against Plasmodium berghei infected in mice (Mus musculus) assessed as increase in survival of mice (Mus musculus) at 100 uM/kg; assay type: functional
[11] = system: Plasmodium falciparum; test: Antimalarial activity against chloroquine-sensitive Plasmodium falciparum; assay type: functional, organism-based
[12] = Cytotoxicity against erythrocytes assessed as morphological changes; assay type: cell-based; conditions: Erythrocyte
[13] = system: Plasmodium falciparum; test: Antimalarial activity against Plasmodium falciparum infected in erythrocytes; assay type: functional, organism-based
[14] = system: Plasmodium falciparum; test: Antimalarial activity against Plasmodium falciparum T9-96; assay type: functional, organism-based
[15] = system: Plasmodium falciparum; test: Antimalarial activity against Plasmodium falciparum after 48 hrs; assay type: functional, organism-based
[16] = system: Plasmodium falciparum; test: Antimalarial activity against Plasmodium falciparum after 72 hrs; assay type: functional, organism-based
[17] = system: Plasmodium falciparum; test: Antimalarial activity against Plasmodium falciparum after 32 hrs; assay type: functional, organism-based
[18] = system: Plasmodium falciparum; test: Antimalarial activity against chloroquine-sensitive Plasmodium falciparum 3D7; assay type: functional, organism-based
[19] = system: Plasmodium vivax; test: Antimalarial activity against Plasmodium vivax infected in human HepG2-A16 cells assessed as reduction of trophozoites level; assay type: functional; design: scale not given: the % may be the effect or the level left
[20] = system: Plasmodium falciparum; test: Antimalarial activity against Plasmodium falciparum infected in intravenously dosed mice (Mus musculus) administered for 4 days; assay type: functional; conditions: iv, 96 h
[21] = system: Plasmodium falciparum; test: Antimalarial activity against Plasmodium falciparum infected in perorally dosed mice (Mus musculus) administered for 4 days; assay type: functional; conditions: po, 96 h
[22] = system: Plasmodium falciparum; test: Antimalarial activity against multidrug-resistant Plasmodium falciparum K1; assay type: functional, organism-based
[23] = system: Plasmodium berghei; test: Antiplasmodial activity against chloroquine-sensitive Plasmodium berghei; assay type: functional, organism-based
[24] = target: T2, Enoyl-acyl-carrier protein reductase (Plasmodium falciparum, UniProt Q965D5); test: as §1
T2 sequence (Q965D5 whole entry): T1 sequence (whole entry)

fold change (FC) [1]: 5
inhibition [2]: 25%
SMILES: C=C1C(=O)OC[C@H]1[C@H](O)/C=C(\C)CC(=O)C=C(C)C

SMILES: O=c1c(-c2ccc(O)cc2)coc2cc(O)cc(O)c12 [GENISTEIN]
IC50 [3]: 4.1 µg/mL (≈ 15.2 µM)
IC50 [4]: 2 µg/mL (≈ 7.4 µM)

IC50 [5]: 0.33 µg/mL (≈ 0.947 µM)
SMILES: C=C1C(=O)O[C@@H]2/C=C(/C)C(=O)/C=C/[C@](C)(O)C[C@@H](OC(=O)C(C)C)[C@@H]12 [TAGITININ C]

SMILES: COc1ccc([C@H]2Oc3cc(O)cc(O)c3C(=O)[C@@H]2[C@H]2C(=O)c3c(O)cc(O)cc3O[C@@H]2c2ccc(O)cc2)cc1 [SIKOKIANIN C]
IC50 [6]: 0.56 µg/mL (≈ 1.01 µM)

SMILES: O=C(Oc1cc(O)cc2c1C[C@H](O)[C@@H](c1ccc(O)c(O)c1)O2)c1cc(O)c(O)c(O)c1
IC50 [7]: 1.2 µM

SMILES: COc1ccc(-c2coc3cc(O)ccc3c2=O)cc1O [CALYCOSIN]
IC50 [3]: 9.8 µg/mL (≈ 34.5 µM)
IC50 [4]: 4.2 µg/mL (≈ 14.8 µM)

IC50 [8]: 3.32 µM
IC50 [9]: 2.13 µM
SMILES: C[C@@H]1O[C@@H](Oc2cc3oc(-c4ccc(O)c(O)c4)cc(=O)c3c(O)c2O)[C@H](O)[C@H](O)[C@H]1O

SMILES: CCN(CC)CCCC(C)Nc1ccnc2cc(Cl)ccc12 (stereo not drawn) [CHLOROQUINE]
Survival [10]: 6 days

SMILES: Cc1c2c(cc3c1C(=O)C=C(C(C)C)C3=O)C(C)(C)CCC2 [12,16-DIDEOXY AEGYPTINONE B]
IC50 [6]: 1.4 µg/mL (≈ 4.72 µM)
IC50 [11]: 1.3 µg/mL (≈ 4.39 µM)

IC50 [13]: 25.6 µM
SMILES: CC(C)c1ccc2c(c1)CC[C@H]1[C@](C)(CO)CCC[C@]21C [POMIFERIN A]
IC50 [12]: 28 µM

SMILES: CO[C@@H]1C=C[C@]23c4cc5c(cc4[C@@H](O)N(C[C@@H]2O)[C@H]3C1)OCO5
IC50 [14]: 0.34 µg/mL (≈ 1.07 µM)

IC50 [8]: 0.0017 µg/mL
IC50 [9]: 0.0015 µg/mL
SMILES: COc1c2c(c(O)c3c4c(c(C)cc13)[C@@H]1O[C@@]3(C(OC)OC)O[C@@H]1[C@@](O[C@H]1C[C@@H](O)[C@@](O)(C(C)=O)[C@H](C)O1)(O4)[C@@]31CO1)C(=O)[C@@H](O)C[C@@H]2O[C@H]1C[C@@](C)(O)[C@H](OC(C)=O)[C@H](C)O1 [TRIOXACARCIN A]

IC50 [15]: 26 µg/mL (≈ 56.7 µM)
IC50 [16]: 1.8 µg/mL (≈ 3.92 µM)
IC50 [17]: 14 µg/mL (≈ 30.5 µM)
SMILES: CC(C)=CCC/C(C)=C/CC/C(C)=C/CC[C@@]1(C)[C@H](CCCO)/C(=C(/C)C=O)CC[C@]1(C)O [IRIDAL]

SMILES: COc1ccc(-c2cc(=O)c3c(O)cc(O)cc3o2)cc1 [ACACETIN]
IC50 [3]: 12.6 µg/mL (≈ 44.3 µM)
IC50 [4]: 5.5 µg/mL (≈ 19.3 µM)

IC50 [18]: > 100 µM
SMILES: COc1cc(O)c2c(c1)O[C@H](c1ccccc1)CC2=O [PINOSTROBIN]

SMILES: CC(CO)CCC(=O)[C@@H](C)[C@H]1[C@H](O)C[C@H]2[C@@H]3CCC4=CC(=O)CC[C@]4(C)[C@H]3CC[C@]12C (stereo partly drawn)
Activity [19]: 47%

SMILES: C[C@H]1[C@@H](CC(COC(=O)c2cc[n+]([O-])cc2)C[C@H]2O[C@@H]3O[C@]4(C)CC[C@H]5[C@H](C)CC[C@@H]([C@H]2C)[C@@]35OO4)O[C@@H]2O[C@]3(C)CC[C@H]4[C@H](C)CC[C@@H]1[C@@]24OO3 (stereo partly drawn)
ED50 [20]: 0.8 mg/kg
ED50 [21]: 2 mg/kg

SMILES: Cc1c2ccncc2c(C)c2c1[nH]c1ccccc12 [ELLIPTECINE]
IC50 [22]: 0.073 µM

SMILES: Oc1cccc2c1[nH]c1c(C3=C[C@]4(O)CC/C=C\CCCCN5CC[C@H]3[C@@]3(C[C@H]6/C=C\CCCCN6[C@@H]34)C5)nccc12 [ENT-8-HYDROXYMENZAMINE A]
Survival [10]: 9 days

IC50 [23]: 0.0021 µM
SMILES: COC(C)(C)[C@@H]1C=C2C(=O)[C@H]3O[C@H]3C3C=CC(C2C(=O)/C1=C/CO)[C@H]3O (stereo partly drawn)
ED50 [23]: 5.2 mg/kg

SMILES: O=c1cc(-c2ccc(O)c(O)c2)oc2cc(O[C@@H]3O[C@H](CO)[C@@H](O)[C@H](O)[C@H]3O)cc(O)c12 [GALUTEOLIN]
IC50 [24]: 22.3 µM
